In experiment [1] the target is L-asparaginase from Paenibacillus thiaminolyticus (isoenzyme 1) (Paenibacillus thiaminolyticus). Nature of the experiment: SEC; HiPrep 16/60 Sephacryl S-100 HR, flow rate 0.5 mL/min, 50 mM phosphate (K+) buffer pH 8.0; standards lysozyme (14 kDa), amylase (55 kDa), aldolase (160 kDa). Background: In gel filtration, larger molecules generally elute earlier.
The target of experiment [2] is T1, ASN339Pt iso 1 (Paenibacillus thiaminolyticus, UniProt A0AAP9J308).
T1 construct: gene M5W83_23570; motifs RSSSKPVQAL and NCSGKHLGV; not isoenzyme 2 WP_087440700.1
T1 sequence (A0AAP9J308 entry or part of it): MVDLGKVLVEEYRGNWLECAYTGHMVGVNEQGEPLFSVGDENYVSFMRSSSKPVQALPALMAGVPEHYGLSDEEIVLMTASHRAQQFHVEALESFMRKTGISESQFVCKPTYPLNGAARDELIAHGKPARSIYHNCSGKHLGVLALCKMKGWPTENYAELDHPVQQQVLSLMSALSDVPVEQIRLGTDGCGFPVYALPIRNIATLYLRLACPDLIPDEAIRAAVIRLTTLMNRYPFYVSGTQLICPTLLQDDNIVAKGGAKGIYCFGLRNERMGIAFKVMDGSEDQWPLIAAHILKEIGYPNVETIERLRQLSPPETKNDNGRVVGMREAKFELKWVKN
Briefly: ammonia release, Nessler's reagent, […] nm; modified substrate inhibition model (Eq. […], n = […]). In kind it is biochemical. The following applies: 100 mM Tris pH 9.0, 37 °C, 10 min (standard assay); L-asparagine 1.9-145 mmol L^-1; fit with substrate inhibition; substrate inhibition constant, two additional substrate molecules (n = 2), active sit.

Experiment [3] deals with T1, ASN339Pt iso 1. Described as above. In kind it is biochemical. The following applies: 100 mM Tris pH 9.0, 37 °C, 10 min (standard assay); L-asparagine 1.9-145 mmol L^-1; fit with substrate inhibition; read-out: Results (according to Eq. (2)).

Usually stoichiometry N stands for the number of molecules, sites or subunits per partner or assembly. Consider “L-asparaginase from Paenibacillus thiaminolyticus (isoenzyme 1)”, for which the stoichiometry N in experiment [1] worked out at 2. For the molecule `NC(=O)C[C@H](N)C(=O)O` [L-asparagine], on ASN339Pt iso 1 [2], the “Results (according to Eq. (2))” value amounted to 32 ± 5 mmol/L. Besides, the Km at ASN339Pt iso 1 [3] turned out to be 26 ± 8 mM.

These data come from article PMC13541837, “High-yield production and functional analysis of novel rhizobial-type glutaminase-free L-asparaginase from Paenibacillus thiaminolyticus” (Folia Microbiologica, 2025).
